From US20130005747A1, “METHOD FOR SELECTING A CANCER THERAPY” (Cyclacel Limited, priority 2010, published 2013)

Experiments:
Test in all cases: Fractional growth, 72 h seliciclib
Assay type in all cases: cell-based, human
Sarc9371 = Sarc9371 (Bone), 15 μM seliciclib
From the text: (§1) A total of 270 human cancer cell lines from diverse cancer histopathologic types were investigated.

NCI-H1299 = NCI-H1299 (Lung: NSCLC), 15 μM seliciclib
From the text: as §1

A673 = A673 (Muscle), 15 μM seliciclib
From the text: as §1

PA-TU-8988S = PA-TU-8988S (Pancreas), 15 μM seliciclib
From the text: as §1

G-292 Clone A141B1 = G-292 Clone A141B1 (Bone), 15 μM seliciclib
From the text: as §1

A549 = A549 (Lung: NSCLC), 15 μM seliciclib
From the text: as §1

YAPC = YAPC (Pancreas), 15 μM seliciclib
From the text: as §1

MDA-MB-231 = MDA-MB-231 (Breast), 15 μM seliciclib
From the text: as §1

Panc 03.27 = Panc 03.27 (Pancreas), 15 μM seliciclib
From the text: as §1

SISO = SISO (Cervix), 15 μM seliciclib
From the text: as §1

NCI-H2347 = NCI-H2347 (Lung: NSCLC), 15 μM seliciclib
From the text: as §1

LCLC-103H = LCLC-103H (Lung: NSCLC), 15 μM seliciclib
From the text: as §1

MG-63 = MG-63 (Bone), 15 μM seliciclib
From the text: as §1

NCI-H1915 = NCI-H1915 (Lung: NSCLC), 15 μM seliciclib
From the text: as §1

NCI-H841 = NCI-H841 (Lung), 15 μM seliciclib
From the text: as §1

PFSK-1 = PFSK-1 (Brain), 15 μM seliciclib
From the text: as §1

Daoy = Daoy (Brain), 15 μM seliciclib
From the text: as §1

A2780 = A2780 (Ovary), 15 μM seliciclib
From the text: as §1

HLE = HLE (Liver), 15 μM seliciclib
From the text: as §1

OVCAR-8 = OVCAR-8 (Ovary), 15 μM seliciclib
From the text: as §1

SCC-25 = SCC-25 (Head & Neck), 15 μM seliciclib
From the text: as §1

MIA PaCa-2 = MIA PaCa-2 (Pancreas), 15 μM seliciclib
From the text: as §1

SK-N-MC = SK-N-MC (Brain), 15 μM seliciclib
From the text: as §1

AU565 = AU565 (Breast), 15 μM seliciclib
From the text: as §1

Panc 04.03 = Panc 04.03 (Pancreas), 15 μM seliciclib
From the text: as §1

DK-MG = DK-MG (Brain), 15 μM seliciclib
From the text: as §1

MKN1 = MKN1 (Stomach), 15 μM seliciclib
From the text: as §1

SKG-IIIb = SKG-IIIb (Cervix), 15 μM seliciclib
From the text: as §1

NCI-H1581 = NCI-H1581 (Lung: NSCLC), 15 μM seliciclib
From the text: as §1

RCM-1 = RCM-1 (Intestine), 15 μM seliciclib
From the text: as §1

1A6 = 1A6 (Bladder), 15 μM seliciclib
From the text: as §1

T98G = T98G (Brain), 15 μM seliciclib
From the text: as §1

SNG-M = SNG-M (Uterus), 15 μM seliciclib
From the text: as §1

PCI-30 = PCI-30 (Head & Neck), 15 μM seliciclib
From the text: as §1

JHU-022 = JHU-022 (Head & Neck), 15 μM seliciclib
From the text: as §1

PANC-1 = PANC-1 (Pancreas), 15 μM seliciclib
From the text: as §1

JHU-028EP = JHU-028EP (Head & Neck), 15 μM seliciclib
From the text: as §1

CC[C@H](CO)Nc1nc(NCc2ccccc2)c2ncn(C(C)C)c2n1 [seliciclib, roscovitine]
Fractional Growth (Sarc9371): 0.6425 | Fractional Growth (NCI-H1299): 0.3352 | Fractional Growth (A673): 0.4111 | Fractional Growth (PA-TU-8988S): 0.5791 | Fractional Growth (G-292 Clone A141B1): 0.6393 | Fractional Growth (A549): 0.1925 | Fractional Growth (YAPC): 0.588 | Fractional Growth (MDA-MB-231): 0.4643 | Fractional Growth (Panc 03.27): 0.5632 | Fractional Growth (SISO): 0.6424 | Fractional Growth (NCI-H2347): 0.3299 | Fractional Growth (LCLC-103H): 0.5051 | Fractional Growth (MG-63): 0.5484 | Fractional Growth (NCI-H1915): 0.4337 | Fractional Growth (NCI-H841): 0.7639 | Fractional Growth (PFSK-1): 0.249 | Fractional Growth (Daoy): 0.6209 | Fractional Growth (A2780): 0.4827 | Fractional Growth (HLE): 0.1553 | Fractional Growth (OVCAR-8): 0.5886 | Fractional Growth (SCC-25): 0.571 | Fractional Growth (MIA PaCa-2): 0.4826 | Fractional Growth (SK-N-MC): 0.283 | Fractional Growth (AU565): 0.4762 | Fractional Growth (Panc 04.03): 0.4899 | Fractional Growth (DK-MG): 0.8572 | Fractional Growth (MKN1): 0.3594 | Fractional Growth (SKG-IIIb): 0.6636 | Fractional Growth (NCI-H1581): 0.7659 | Fractional Growth (RCM-1): 0.6689 | Fractional Growth (1A6): 0.6475 | Fractional Growth (T98G): 0.4404 | Fractional Growth (SNG-M): 0.3393 | Fractional Growth (PCI-30): 0.5541 | Fractional Growth (JHU-022): 0.6294 | Fractional Growth (PANC-1): 0.5761 | Fractional Growth (JHU-028EP): 0.3716
